# In US20200085776A1, “Methods of Reducing C-Reactive Protein and/or Treating Cardiovascular Disease” (CARDAX, INC., priority 2018, published 2020):
# What was measured:
# Triglycerides = assay: Fasting lipid panel: triglycerides, CHASE clinical study; assay type: in vivo, human; conditions: for Triglycerides V2 to V6 % Change Max / Triglycerides V2 to V6 % Change Mean (SD) / Triglycerides V2 to V6 % Change Median / Triglycerides V2 to V6 % Change Min / Triglycerides V2 to V6 Change Max / Triglycerides V2 to V6 Change Mean (SD) / Triglycerides V2 to V6 Change Median / Triglycerides V2 to V6 Change Min: baseline to Week 12
# Excerpt: Blood samples shall be obtained under fasted conditions for a lipid panel at V2, V4, V6, V7, and V8. This panel shall include total cholesterol, LDL-C, VLDL-C, HDL-C, and triglycerides. A minimum eight-hour fast (water allowed) is required for the lipid panel.
# Fasting lipid profiles and fasting chemistry panels may be obtained within the visit time window on a day separate from the scheduled office visit, within two days before or after the other study procedures. A minimum of eight hours fasted (water allowed ad lib) is required.
# (§1) Table 7M provides the changes in lipid levels (mg/dL) (V2 to V6) for subjects.
# Oxidized LDL = assay: Oxidized LDL, CHASE clinical study; assay type: in vivo, human; parameters: Oxidized LDL Mean (SD) / Oxidized LDL Median / Oxidized LDL Min / Oxidized LDL Max / Oxidized LDL V2 to V6 Change Median / Oxidized LDL V2 to V6 Change Max: unit not given here; conditions: all subjects; for Oxidized LDL V2 to V6 % Change Max / Oxidized LDL V2 to V6 % Change Mean (SD) / Oxidized LDL V2 to V6 % Change Median / Oxidized LDL V2 to V6 % Change Min / Oxidized LDL V2 to V6 Change Max / Oxidized LDL V2 to V6 Change Mean (SD) / Oxidized LDL V2 to V6 Change Median / Oxidized LDL V2 to V6 Change Min: baseline to Week 12
# Excerpt: Samples shall be obtained for TNF-α, IL-1β, IL-6, IFN-γ, and oxLDL at V2, V4, V6, and V8 I.
# as §1
# [1] = Group X 12 mg BID, V2 baseline pre-dose, all subjects
# [2] = Group X 12 mg BID, V2 baseline pre-dose, subjects with hyperlipidemia
# [3] = Group X 12 mg BID, V6 Week 12, all subjects
# [4] = Group X 12 mg BID, V6 Week 12, subjects with hyperlipidemia
# [5] = Group X 12 mg BID, all subjects
# [6] = Group X 12 mg BID, subjects with hyperlipidemia
# [7] = Group Z 48 mg BID, V2 baseline pre-dose, all subjects
# [8] = Group Z 48 mg BID, V2 baseline pre-dose, subjects with hyperlipidemia
# [9] = Group Z 48 mg BID, V6 Week 12, all subjects
# [10] = Group Z 48 mg BID, V6 Week 12, subjects with hyperlipidemia
# [11] = Group Z 48 mg BID, all subjects
# [12] = Group Z 48 mg BID, subjects with hyperlipidemia
# [13] = Group X 12 mg BID, V2 baseline pre-dose
# [14] = Group Z 48 mg BID, V2 baseline pre-dose
smiles,measurement,setting,value
"CC1=C(/C=C/C(C)=C/C=C/C(C)=C/C=C/C=C(C)/C=C/C=C(C)/C=C/C2=C(C)C(=O)C(O)CC2(C)C)C(C)(C)CC(O)C1=O (stereo not drawn) [Astaxanthin, astaxanthin]",Triglycerides Max,Triglycerides; [1],482.0 mg/dL
same,Triglycerides Mean (SD),Triglycerides; [1],201.9 (122.2) mg/dL
same,Triglycerides Median,Triglycerides; [1],177.0 mg/dL
same,Triglycerides Min,Triglycerides; [1],59.00 mg/dL
same,Triglycerides Max,Triglycerides; [2],482.0 mg/dL
same,Triglycerides Mean (SD),Triglycerides; [2],235.8 (126.1) mg/dL
same,Triglycerides Median,Triglycerides; [2],253.5 mg/dL
same,Triglycerides Min,Triglycerides; [2],80.00 mg/dL
same,Triglycerides Max,Triglycerides; [3],420.0 mg/dL
same,Triglycerides Mean (SD),Triglycerides; [3],177.4 (109.8) mg/dL
same,Triglycerides Median,Triglycerides; [3],131.0 mg/dL
same,Triglycerides Min,Triglycerides; [3],70.00 mg/dL
same,Triglycerides Max,Triglycerides; [4],420.0 mg/dL
same,Triglycerides Mean (SD),Triglycerides; [4],202.3 (120.2) mg/dL
same,Triglycerides Median,Triglycerides; [4],211.5 mg/dL
same,Triglycerides Min,Triglycerides; [4],70.00 mg/dL
same,Triglycerides V2 to V6 % Change Max,Triglycerides; [5],42.37%
same,Triglycerides V2 to V6 % Change Mean (SD),Triglycerides; [5],−7.10 (27.88) %
same,Triglycerides V2 to V6 % Change Median,Triglycerides; [5],−12.9%
same,Triglycerides V2 to V6 % Change Min,Triglycerides; [5],−61.5%
same,Triglycerides V2 to V6 Change Max,Triglycerides; [5],56.00 mg/dL
same,Triglycerides V2 to V6 Change Mean (SD),Triglycerides; [5],−24.6 (59.47) mg/dL
same,Triglycerides V2 to V6 Change Median,Triglycerides; [5],-26.0 mg/dL
same,Triglycerides V2 to V6 Change Min,Triglycerides; [5],-166 mg/dL
same,Triglycerides V2 to V6 % Change Max,Triglycerides; [6],22.76%
same,Triglycerides V2 to V6 % Change Mean (SD),Triglycerides; [6],−12.9 (26.00) %
same,Triglycerides V2 to V6 % Change Median,Triglycerides; [6],−14.5%
same,Triglycerides V2 to V6 % Change Min,Triglycerides; [6],−61.5%
same,Triglycerides V2 to V6 Change Max,Triglycerides; [6],56.00 mg/dL
same,Triglycerides V2 to V6 Change Mean (SD),Triglycerides; [6],−33.5 (66.92) mg/dL
same,Triglycerides V2 to V6 Change Median,Triglycerides; [6],-34.0 mg/dL
same,Triglycerides V2 to V6 Change Min,Triglycerides; [6],-166 mg/dL
same,Triglycerides Max,Triglycerides; [7],1677 mg/dL
same,Triglycerides Mean (SD),Triglycerides; [7],283.5 (368.2) mg/dL
same,Triglycerides Median,Triglycerides; [7],175.0 mg/dL
same,Triglycerides Min,Triglycerides; [7],75.00 mg/dL
same,Triglycerides Max,Triglycerides; [8],1677 mg/dL
same,Triglycerides Mean (SD),Triglycerides; [8],321.9 (407.8) mg/dL
same,Triglycerides Median,Triglycerides; [8],182.0 mg/dL
same,Triglycerides Min,Triglycerides; [8],82.00 mg/dL
same,Triglycerides Max,Triglycerides; [9],650.0 mg/dL
same,Triglycerides Mean (SD),Triglycerides; [9],192.2 (155.1) mg/dL
same,Triglycerides Median,Triglycerides; [9],145.5 mg/dL
same,Triglycerides Min,Triglycerides; [9],63.00 mg/dL
same,Triglycerides Max,Triglycerides; [10],650.0 mg/dL
same,Triglycerides Mean (SD),Triglycerides; [10],213.1 (170.3) mg/dL
same,Triglycerides Median,Triglycerides; [10],149.5 mg/dL
same,Triglycerides Min,Triglycerides; [10],76.00 mg/dL
same,Triglycerides V2 to V6 % Change Max,Triglycerides; [11],115.2%
same,Triglycerides V2 to V6 % Change Mean (SD),Triglycerides; [11],−0.96 (43.74) %
same,Triglycerides V2 to V6 % Change Median,Triglycerides; [11],−16.2%
same,Triglycerides V2 to V6 % Change Min,Triglycerides; [11],−49.5%
same,Triglycerides V2 to V6 Change Max,Triglycerides; [11],348.0 mg/dL
same,Triglycerides V2 to V6 Change Mean (SD),Triglycerides; [11],−9.89 (109.9) mg/dL
same,Triglycerides V2 to V6 Change Median,Triglycerides; [11],-24.5 mg/dL
same,Triglycerides V2 to V6 Change Min,Triglycerides; [11],-178 mg/dL
same,Triglycerides V2 to V6 % Change Max,Triglycerides; [12],115.2%
same,Triglycerides V2 to V6 % Change Mean (SD),Triglycerides; [12],0.07 (48.86) %
same,Triglycerides V2 to V6 % Change Median,Triglycerides; [12],−21.5%
same,Triglycerides V2 to V6 % Change Min,Triglycerides; [12],−49.5%
same,Triglycerides V2 to V6 Change Max,Triglycerides; [12],348.0 mg/dL
same,Triglycerides V2 to V6 Change Mean (SD),Triglycerides; [12],−12.0 (124.4) mg/dL
same,Triglycerides V2 to V6 Change Median,Triglycerides; [12],-29.0 mg/dL
same,Triglycerides V2 to V6 Change Min,Triglycerides; [12],-178 mg/dL
same,Oxidized LDL Max,Oxidized LDL; [13],87.00
same,Oxidized LDL Mean (SD),Oxidized LDL; [13],51.64 (18.34)
same,Oxidized LDL Median,Oxidized LDL; [13],49.00
same,Oxidized LDL Min,Oxidized LDL; [13],29.00
same,Oxidized LDL Max,"Oxidized LDL; Group X 12 mg BID, V6 Week 12",85.00
same,Oxidized LDL Mean (SD),"Oxidized LDL; Group X 12 mg BID, V6 Week 12",51.18 (17.62)
same,Oxidized LDL Median,"Oxidized LDL; Group X 12 mg BID, V6 Week 12",46.00
same,Oxidized LDL Min,"Oxidized LDL; Group X 12 mg BID, V6 Week 12",34.00
same,Oxidized LDL V2 to V6 % Change Max,Oxidized LDL; Group X 12 mg BID,17.24%
same,Oxidized LDL V2 to V6 % Change Mean (SD),Oxidized LDL; Group X 12 mg BID,0.41 (12.46) %
same,Oxidized LDL V2 to V6 % Change Median,Oxidized LDL; Group X 12 mg BID,2.86%
same,Oxidized LDL V2 to V6 % Change Min,Oxidized LDL; Group X 12 mg BID,−26.0%
same,Oxidized LDL V2 to V6 Change Max,Oxidized LDL; Group X 12 mg BID,6.00
same,Oxidized LDL V2 to V6 Change Mean (SD),Oxidized LDL; Group X 12 mg BID,−0.45 (5.65)
same,Oxidized LDL V2 to V6 Change Median,Oxidized LDL; Group X 12 mg BID,1.00
same,Oxidized LDL V2 to V6 Change Min,Oxidized LDL; Group X 12 mg BID,−13.0
same,Oxidized LDL Max,Oxidized LDL; [14],86.00
same,Oxidized LDL Mean (SD),Oxidized LDL; [14],55.00 (17.80)
same,Oxidized LDL Median,Oxidized LDL; [14],59.00
same,Oxidized LDL Min,Oxidized LDL; [14],24.00
same,Oxidized LDL Max,"Oxidized LDL; Group Z 48 mg BID, V6 Week 12",77.00
same,Oxidized LDL Mean (SD),"Oxidized LDL; Group Z 48 mg BID, V6 Week 12",46.22 (15.21)
same,Oxidized LDL Median,"Oxidized LDL; Group Z 48 mg BID, V6 Week 12",48.00
same,Oxidized LDL Min,"Oxidized LDL; Group Z 48 mg BID, V6 Week 12",25.00
same,Oxidized LDL V2 to V6 % Change Max,Oxidized LDL; Group Z 48 mg BID,24.39%
same,Oxidized LDL V2 to V6 % Change Mean (SD),Oxidized LDL; Group Z 48 mg BID,−12.7 (19.64) %
same,Oxidized LDL V2 to V6 % Change Median,Oxidized LDL; Group Z 48 mg BID,−10.1%
same,Oxidized LDL V2 to V6 % Change Min,Oxidized LDL; Group Z 48 mg BID,−43.8%
same,Oxidized LDL V2 to V6 Change Max,Oxidized LDL; Group Z 48 mg BID,10.00
same,Oxidized LDL V2 to V6 Change Mean (SD),Oxidized LDL; Group Z 48 mg BID,−8.22 (12.33)
same,Oxidized LDL V2 to V6 Change Median,Oxidized LDL; Group Z 48 mg BID,−4.00
same,Oxidized LDL V2 to V6 Change Min,Oxidized LDL; Group Z 48 mg BID,−36.0
